Test results: patent publication US20240391965A1, “STAPLED ANTIMICROBIAL PEPTIDES (STAMPS) AND USES THEREOF” (Lytica Therapeutics, Inc., priority 2021, published 2024)
Converted amounts (≈) assume the structure as drawn. Starred links: 1 amine or outer side, 2 acyl side, 3 side chain; linkers in the order of their positions; H or OH if unused. Positions of bridges follow the written chain, without caps; N, C: chain ends. Residues, ends and D or L forms follow the SMILES beside them. 2,2'Bipyridine(5,5'-diCH2) = c1cc(-c2ccc(C[*:2])cn2)ncc1C[*:1]; Naphthalene(2,6-diCH2) = c1cc2cc(C[*:2])ccc2cc1C[*:1]; mXylylene = c1cc(C[*:1])cc(C[*:2])c1; pXylylene = c1cc(C[*:2])ccc1C[*:1]

Experiments:
[1] = 48 hours cytotoxicity assay (CellTiter-Glo), liver toxicity; format: cell-based, human; details: 48 hours of incubation, CellTiter-Glo; read-out: Inhibitory Concentration at 50% Cytotoxicity (IC50) Human Liver Cells (HepG2)
How it was run: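 Viability from CellTiter-Glo luminescence after StAMP dilution series or vehicle acted on HepG2 cells for 48 h at 37 °C. Cells were grown in EMEM plus 10% FBS and given 4 h to attach before dosing.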

[2] = 90 minute cytotoxicity assay (LDH release), renal toxicity; format: cell-based; details: 90 minutes of incubation, LDH release; read-out: Inhibitory Concentration at 50% Cytotoxicity (IC50) Human Renal Proximal Tubule Epithelial Cells (RPTEC)
How it was run: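 Released lactate dehydrogenase, read as absorbance at 490 nm after 10 min with assay reagent, serves as read-out. Renal proximal tubule epithelial cells received peptide serial dilutions or vehicle for 90 min at 37° C after overnight plating.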

[3] = system: Klebsiella pneumoniae (K. pneumoniae); format: cell-based; details: microbroth dilution, 20-24 hours at 37° C.
How it was run: (§1)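 MIC = lowest peptide concentration without visible bacterial growth. CLSI-based microbroth dilution, MHB or MHB II, inoculum 5×10^5 CFU/ml, 20-24 h, 37 °C.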

[4] = system: Pseudomonas aeruginosa (P. aeruginosa); format: cell-based; details: microbroth dilution, 20-24 hours at 37° C.
How it was run: as §1

[5] = system: Escherichia coli (E. coli); format: cell-based; details: microbroth dilution, 20-24 hours at 37° C.
How it was run: as §1

[6] = system: Acinetobacter baumannii (A. baumannii); format: cell-based; details: microbroth dilution, 20-24 hours at 37° C.
How it was run: as §1

[7] = system: Staphylococcus aureus (S. aureus); format: cell-based; details: microbroth dilution, 20-24 hours at 37° C.
How it was run: as §1

Compound | IC50 [1] [µg/mL] | IC50 [2] [µg/mL] | Minimum Inhibitory Concentration (MIC) K. pneumoniae [3] [µg/mL] | Minimum Inhibitory Concentration (MIC) P. aeruginosa [4] [µg/mL] | Minimum Inhibitory Concentration (MIC) E. coli [5] [µg/mL] | Minimum Inhibitory Concentration (MIC) A. baumannii [6] [µg/mL] | Minimum Inhibitory Concentration (MIC) S. aureus [7] [µg/mL]
CC[C@H](C)[C@H](NC(=O)CN)C(=O)N[C@@H](Cc1ccccc1)C(=O)N[C@H]1CSCc2ccc(nc2)-c2ccc(cn2)CSC[C@@H](C(=O)N[C@@H](CCCCN)C(=O)N[C@@H](CC(N)=O)C(=O)N[C@@H](CC(C)C)C(=O)N[C@@H](CC(C)C)C(=O)N[C@H](C(=O)N[C@@H](CO)C(=O)NCC(=O)N[C@@H](CC(C)C)C(=O)N[C@@H](CCCCN)C(=O)NCC(N)=O)[C@@H](C)CC)NC(=O)[C@H](CCCCN)NC(=O)[C@H](CCCCN)NC(=O)CNC(=O)[C@H](C)NC(=O)[C@H](CC(C)C)NC(=O)[C@H](CCCCN)NC1=O [compound 57] (H-GIFCKLAGKKCKNLLISGLKG-NH2; linker 4-11 via 2,2'Bipyridine(5,5'-diCH2); N-terminus assumed) | 103 (≈ 43.4 µM) | > 200 | >64 | >64 | 16 | 16 | >64
CC[C@H](C)[C@H](NC(=O)CN)C(=O)N[C@H]1CSCc2ccc3cc(ccc3c2)CSC[C@@H](C(=O)N[C@H](C(=O)N[C@@H](CCCCN)C(=O)N[C@@H](CC(N)=O)C(=O)N[C@@H](CC(C)C)C(=O)N[C@@H](CC(C)C)C(=O)N[C@H](C(=O)N[C@@H](CO)C(=O)NCC(=O)N[C@@H](CC(C)C)C(=O)N[C@@H](CCCCN)C(=O)NCC(N)=O)[C@@H](C)CC)[C@@H](C)CC)NC(=O)[C@H](CCCCN)NC(=O)CNC(=O)[C@H](C)NC(=O)[C@H](CC(C)C)NC(=O)[C@H](CCCCN)NC(=O)[C@H](CO)NC1=O [compound 55] (H-GICSKLAGKCIKNLLISGLKG-NH2; linker 3-10 via Naphthalene(2,6-diCH2); N-terminus assumed) | 53 (≈ 23.4 µM) | 23 (≈ 10.1 µM) | 16 | 32 | 8 | 8 | 32
CC[C@H](C)[C@H](NC(=O)CN)C(=O)N[C@@H](Cc1ccccc1)C(=O)N[C@@H](CO)C(=O)N[C@@H](CCCCN)C(=O)N[C@@H](CC(C)C)C(=O)N[C@@H](C)C(=O)NCC(=O)N[C@@H](CCCCN)C(=O)N[C@H]1CSCc2cccc(c2)CSC[C@@H](C(=O)N[C@@H](CC(C)C)C(=O)N[C@H](C(=O)N[C@@H](CO)C(=O)NCC(=O)N[C@@H](CC(C)C)C(=O)N[C@@H](CCCCN)C(=O)NCC(N)=O)[C@@H](C)CC)NC(=O)[C@H](CC(N)=O)NC(=O)[C@H](CCCCN)NC(=O)[C@H]([C@@H](C)CC)NC1=O [compound 14] (H-GIFSKLAGKCIKNCLISGLKG-NH2; linker 10-14 via mXylylene) | 49 (≈ 21.8 µM) | 41 (≈ 18.2 µM) | 16 | 16 | 4 | 8 | 32
CC[C@H](C)[C@H](NC(=O)CN)C(=O)N[C@@H](Cc1ccccc1)C(=O)N[C@@H](CO)C(=O)N[C@@H](CCCCN)C(=O)N[C@@H](CC(C)C)C(=O)N[C@@H](C)C(=O)N[C@H]1CSCc2cccc(c2)CSC[C@@H](C(=O)N[C@@H](CC(N)=O)C(=O)N[C@@H](CC(C)C)C(=O)N[C@@H](CC(C)C)C(=O)N[C@H](C(=O)N[C@@H](CO)C(=O)NCC(=O)N[C@@H](CC(C)C)C(=O)N[C@@H](CCCCN)C(=O)NCC(N)=O)[C@@H](C)CC)NC(=O)[C@H]([C@@H](C)CC)NC(=O)[C@H](CCCCN)NC(=O)[C@H](CCCCN)NC1=O [compound 10] (H-GIFSKLACKKICNLLISGLKG-NH2; linker 8-12 via mXylylene) | 18 (≈ 7.8 µM) | 17 (≈ 7.37 µM) | 8 | 16 | 4 | 4 | 32
CC[C@H](C)[C@H](NC(=O)CN)C(=O)N[C@@H](Cc1ccccc1)C(=O)N[C@@H](CO)C(=O)N[C@@H](CCCCN)C(=O)N[C@@H](CC(C)C)C(=O)N[C@@H](C)C(=O)NCC(=O)N[C@@H](CCCCN)C(=O)N[C@@H](CCCCN)C(=O)N[C@H](C(=O)N[C@@H](CCCCN)C(=O)N[C@@H](CC(N)=O)C(=O)N[C@@H](CC(C)C)C(=O)N[C@H]1CSCc2cccc(c2)CSC[C@@H](C(=O)N[C@@H](CCCCN)C(=O)NCC(N)=O)NC(=O)CNC(=O)[C@H](CO)NC(=O)[C@H]([C@@H](C)CC)NC1=O)[C@@H](C)CC [compound 29] (H-GIFSKLAGKKIKNLCISGCKG-NH2; linker 15-19 via mXylylene) | ~200 (≈ 88.2 µM) | > 200 | >64 | 64 | 64 | 16 | >64
CC[C@H](C)[C@H](NC(=O)CN)C(=O)N[C@@H](Cc1ccccc1)C(=O)N[C@@H](CO)C(=O)N[C@@H](CCCCN)C(=O)N[C@@H](CC(C)C)C(=O)N[C@@H](C)C(=O)NCC(=O)N[C@@H](CCCCN)C(=O)N[C@@H](CCCCN)C(=O)N[C@H]1CSCc2cccc(c2)CSC[C@@H](C(=O)N[C@H](C(=O)N[C@@H](CO)C(=O)NCC(=O)N[C@@H](CC(C)C)C(=O)N[C@@H](CCCCN)C(=O)NCC(N)=O)[C@@H](C)CC)NC(=O)[C@H](CC(C)C)NC(=O)[C@H](CC(N)=O)NC(=O)[C@H](CCCCN)NC1=O [compound 17] (H-GIFSKLAGKKCKNLCISGLKG-NH2; linker 11-15 via mXylylene) | > 200 | > 200 | >64 | >64 | 64 | >64 | >64
CC[C@H](C)[C@H](NC(=O)CN)C(=O)N[C@@H](Cc1ccccc1)C(=O)N[C@H]1CSCc2ccc3cc(ccc3c2)CSC[C@@H](C(=O)N[C@@H](CCCCN)C(=O)N[C@@H](CC(N)=O)C(=O)N[C@@H](CC(C)C)C(=O)N[C@@H](CC(C)C)C(=O)N[C@H](C(=O)N[C@@H](CO)C(=O)NCC(=O)N[C@@H](CC(C)C)C(=O)N[C@@H](CCCCN)C(=O)NCC(N)=O)[C@@H](C)CC)NC(=O)[C@H](CCCCN)NC(=O)[C@H](CCCCN)NC(=O)CNC(=O)[C@H](C)NC(=O)[C@H](CC(C)C)NC(=O)[C@H](CCCCN)NC1=O [compound 58] (H-GIFCKLAGKKCKNLLISGLKG-NH2; linker 4-11 via Naphthalene(2,6-diCH2); N-terminus assumed) | 51 (≈ 21.8 µM) | 131 (≈ 55.9 µM) | 32 | 64 | 16 | 4 | >64
CC[C@H](C)[C@H](NC(=O)CN)C(=O)N[C@@H](Cc1ccccc1)C(=O)N[C@@H](CO)C(=O)N[C@@H](CCCCN)C(=O)N[C@@H](CC(C)C)C(=O)N[C@@H](C)C(=O)NCC(=O)N[C@@H](CCCCN)C(=O)N[C@@H](CCCCN)C(=O)N[C@H](C(=O)N[C@@H](CCCCN)C(=O)N[C@@H](CC(N)=O)C(=O)N[C@@H](CC(C)C)C(=O)N[C@@H](CC(C)C)C(=O)N[C@H]1CSCc2ccc(cc2)CSC[C@@H](C(=O)NCC(N)=O)NC(=O)[C@H](CC(C)C)NC(=O)CNC(=O)[C@H](CO)NC1=O)[C@@H](C)CC [compound 33] (H-GIFSKLAGKKIKNLLCSGLCG-NH2; linker 16-20 via pXylylene) | 57 (≈ 25.3 µM) | 59 (≈ 26.2 µM) | 8 | 16 | 4 | 4 | 64
CC[C@H](C)[C@H](NC(=O)CN)C(=O)N[C@@H](Cc1ccccc1)C(=O)N[C@@H](CO)C(=O)N[C@@H](CCCCN)C(=O)N[C@@H](CC(C)C)C(=O)N[C@H]1CSCc2ccc3cc(ccc3c2)CSC[C@@H](C(=O)N[C@@H](CC(C)C)C(=O)N[C@H](C(=O)N[C@@H](CO)C(=O)NCC(=O)N[C@@H](CC(C)C)C(=O)N[C@@H](CCCCN)C(=O)NCC(N)=O)[C@@H](C)CC)NC(=O)[C@H](CC(N)=O)NC(=O)[C@H](CCCCN)NC(=O)[C@H]([C@@H](C)CC)NC(=O)[C@H](CCCCN)NC(=O)[C@H](CCCCN)NC(=O)CNC1=O [compound 87] (H-GIFSKLCGKKIKNCLISGLKG-NH2; linker 7-14 via Naphthalene(2,6-diCH2)) | 54 (≈ 22.9 µM) | 44 (≈ 18.7 µM) | 8 | 8 | 4 | 4 | 64
